Test results: ChEMBL document CHEMBL1201862, “PubChem BioAssay data set” (2004)
Calls of active or inactive are those of the source. For most assays here, no stated cut-off is given here; in the data, actives have a measured EC50 and inactives only a lower limit.

How the values were obtained:
[1] = target: T1, Voltage-gated N-type calcium channel alpha-1B subunit/Amyloid beta A4 precursor protein-binding family A member 1 (Homo sapiens, UniProt Q00975+Q02410); assay type: protein assay
[2] = target: T1, Voltage-gated N-type calcium channel alpha-1B subunit/Amyloid beta A4 precursor protein-binding family A member 1; assay type: protein assay; remark: listed apart in the source
[3] = target: T2, Calpain-2 catalytic subunit (Sus scrofa, UniProt P43367); assay: pig calpain II inhibitor potency, dose response, biochemical, fluorogenic peptide substrate (AID 1420); assay type: functional
T2 sequence (P43367 whole entry): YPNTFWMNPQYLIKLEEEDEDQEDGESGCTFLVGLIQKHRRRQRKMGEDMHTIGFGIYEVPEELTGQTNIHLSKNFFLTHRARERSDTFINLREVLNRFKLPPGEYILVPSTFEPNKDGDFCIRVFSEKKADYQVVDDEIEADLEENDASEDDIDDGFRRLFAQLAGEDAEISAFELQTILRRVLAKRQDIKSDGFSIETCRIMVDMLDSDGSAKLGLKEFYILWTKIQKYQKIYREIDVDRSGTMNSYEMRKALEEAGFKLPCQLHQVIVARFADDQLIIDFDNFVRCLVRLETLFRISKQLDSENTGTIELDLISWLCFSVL

Coagulation factor XII = target: T3, Coagulation factor XII (Homo sapiens, UniProt P00748); assay type: functional;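 further: activated factor XIIa alpha cleaving a fluorogenic AMC peptide substrate; inhibitor potency from loss of enzyme activity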
T3 sequence (P00748 whole entry): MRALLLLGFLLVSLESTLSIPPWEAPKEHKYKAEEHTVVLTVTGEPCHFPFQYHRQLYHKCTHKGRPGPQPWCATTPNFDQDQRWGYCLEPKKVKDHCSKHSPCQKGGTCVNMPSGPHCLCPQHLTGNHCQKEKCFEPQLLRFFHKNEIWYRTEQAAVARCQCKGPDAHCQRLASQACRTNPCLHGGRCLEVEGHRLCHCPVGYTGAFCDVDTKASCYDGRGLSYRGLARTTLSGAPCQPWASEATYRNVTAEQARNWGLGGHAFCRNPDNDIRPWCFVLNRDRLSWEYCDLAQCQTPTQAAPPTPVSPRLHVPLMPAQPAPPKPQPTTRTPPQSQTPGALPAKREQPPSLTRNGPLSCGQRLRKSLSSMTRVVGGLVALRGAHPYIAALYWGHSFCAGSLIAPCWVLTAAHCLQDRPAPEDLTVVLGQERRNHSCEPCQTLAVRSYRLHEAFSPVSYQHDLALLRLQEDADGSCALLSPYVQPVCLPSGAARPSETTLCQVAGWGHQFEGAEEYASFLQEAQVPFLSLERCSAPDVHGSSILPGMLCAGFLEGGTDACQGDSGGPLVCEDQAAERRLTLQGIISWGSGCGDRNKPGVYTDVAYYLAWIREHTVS

Protein RecA = target: T4, Protein RecA (Mycobacterium tuberculosis, UniProt P9WHJ3); assay: Fluorescence Cell-Free Homogeneous Dose Retest to Identify Inhibitors of RecA-Intein Splicing Activity. [Related pubchem assays (depositor defined):AID2097, AID2223, AID489010, AID492950]; assay type: functional
T4 sequence (P9WHJ3 whole entry): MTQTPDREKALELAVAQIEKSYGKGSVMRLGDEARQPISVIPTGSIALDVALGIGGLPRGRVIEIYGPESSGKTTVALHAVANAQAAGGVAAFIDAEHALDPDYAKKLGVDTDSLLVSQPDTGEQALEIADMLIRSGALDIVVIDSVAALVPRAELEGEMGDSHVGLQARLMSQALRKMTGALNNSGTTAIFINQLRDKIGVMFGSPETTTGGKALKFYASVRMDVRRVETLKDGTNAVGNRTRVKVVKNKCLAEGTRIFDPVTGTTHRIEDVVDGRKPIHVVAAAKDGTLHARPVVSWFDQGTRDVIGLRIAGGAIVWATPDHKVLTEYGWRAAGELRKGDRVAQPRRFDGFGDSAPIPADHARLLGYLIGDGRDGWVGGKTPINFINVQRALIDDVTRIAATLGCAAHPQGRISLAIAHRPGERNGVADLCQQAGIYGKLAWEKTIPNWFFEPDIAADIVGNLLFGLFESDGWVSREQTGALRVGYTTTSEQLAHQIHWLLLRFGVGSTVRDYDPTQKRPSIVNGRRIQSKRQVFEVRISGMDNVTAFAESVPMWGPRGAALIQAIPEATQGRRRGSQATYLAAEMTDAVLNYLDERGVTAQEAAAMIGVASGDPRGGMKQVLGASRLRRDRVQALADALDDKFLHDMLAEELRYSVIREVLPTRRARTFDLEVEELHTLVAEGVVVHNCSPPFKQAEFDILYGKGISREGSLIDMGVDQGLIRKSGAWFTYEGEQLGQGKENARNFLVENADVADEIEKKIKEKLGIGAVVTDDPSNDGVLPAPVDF

Genome polyprotein = Genome polyprotein (dengue virus type 2, UniProt P29990); assay: Dengue-2 NS5 methyltransferase inhibitors, primary screen, biochemical, confirmation dose response (AID 588689); assay type: functional
Sequence of Genome polyprotein (P29990 2492-3391 limits assumed): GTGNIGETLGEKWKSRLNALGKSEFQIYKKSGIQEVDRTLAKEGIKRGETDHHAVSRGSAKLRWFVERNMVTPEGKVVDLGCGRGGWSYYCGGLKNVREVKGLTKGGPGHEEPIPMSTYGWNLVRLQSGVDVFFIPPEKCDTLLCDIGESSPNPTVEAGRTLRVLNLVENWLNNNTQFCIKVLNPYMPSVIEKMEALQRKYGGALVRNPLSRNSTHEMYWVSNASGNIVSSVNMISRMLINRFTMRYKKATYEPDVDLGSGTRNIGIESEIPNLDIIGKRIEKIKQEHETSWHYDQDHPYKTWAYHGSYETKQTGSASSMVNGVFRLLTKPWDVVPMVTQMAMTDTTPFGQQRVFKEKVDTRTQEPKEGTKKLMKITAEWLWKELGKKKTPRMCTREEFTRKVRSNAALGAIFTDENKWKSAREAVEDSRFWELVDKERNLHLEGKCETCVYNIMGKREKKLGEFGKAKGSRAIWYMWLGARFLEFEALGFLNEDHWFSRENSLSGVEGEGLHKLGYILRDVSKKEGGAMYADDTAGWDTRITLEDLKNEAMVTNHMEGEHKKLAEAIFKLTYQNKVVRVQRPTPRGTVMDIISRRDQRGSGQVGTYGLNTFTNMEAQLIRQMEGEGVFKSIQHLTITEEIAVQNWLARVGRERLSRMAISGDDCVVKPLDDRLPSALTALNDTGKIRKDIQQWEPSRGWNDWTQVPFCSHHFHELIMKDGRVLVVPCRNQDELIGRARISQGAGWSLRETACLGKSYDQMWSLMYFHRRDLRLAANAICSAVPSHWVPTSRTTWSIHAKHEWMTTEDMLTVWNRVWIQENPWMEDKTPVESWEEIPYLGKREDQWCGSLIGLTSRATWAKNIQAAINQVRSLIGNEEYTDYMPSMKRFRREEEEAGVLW

[4] = target: T5, Replicative DNA helicase DnaB (Mycobacterium tuberculosis, UniProt P9WMR3); assay: DnaB intein splicing inhibitors, dose response, biochemical, cell-free fluorescence (AID 449749); assay type: functional
T5 sequence (P9WMR3 whole entry): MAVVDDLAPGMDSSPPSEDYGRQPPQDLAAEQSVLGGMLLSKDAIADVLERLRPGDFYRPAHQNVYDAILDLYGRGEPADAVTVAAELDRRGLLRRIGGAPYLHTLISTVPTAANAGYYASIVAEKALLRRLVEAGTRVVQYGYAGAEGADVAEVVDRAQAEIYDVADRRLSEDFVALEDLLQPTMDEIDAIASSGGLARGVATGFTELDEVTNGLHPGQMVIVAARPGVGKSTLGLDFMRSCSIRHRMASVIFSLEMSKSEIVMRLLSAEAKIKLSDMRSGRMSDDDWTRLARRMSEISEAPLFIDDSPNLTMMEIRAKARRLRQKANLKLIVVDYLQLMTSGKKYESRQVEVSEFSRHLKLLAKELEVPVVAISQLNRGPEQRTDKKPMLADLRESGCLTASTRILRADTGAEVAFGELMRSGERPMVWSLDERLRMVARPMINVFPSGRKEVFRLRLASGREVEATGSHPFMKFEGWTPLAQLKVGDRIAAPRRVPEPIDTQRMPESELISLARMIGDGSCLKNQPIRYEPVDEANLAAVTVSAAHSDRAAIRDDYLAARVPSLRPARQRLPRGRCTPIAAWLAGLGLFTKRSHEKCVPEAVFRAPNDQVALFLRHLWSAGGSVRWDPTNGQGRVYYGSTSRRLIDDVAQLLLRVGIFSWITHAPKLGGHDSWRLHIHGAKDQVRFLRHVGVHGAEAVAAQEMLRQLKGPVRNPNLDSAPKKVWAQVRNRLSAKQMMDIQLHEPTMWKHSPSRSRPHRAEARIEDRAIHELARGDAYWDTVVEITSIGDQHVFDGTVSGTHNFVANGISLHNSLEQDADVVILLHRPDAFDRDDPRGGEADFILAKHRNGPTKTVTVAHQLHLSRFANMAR

[5] = target: T6, Heat shock factor protein 1 (Mus musculus, UniProt P38532); assay: inhibition of MG132-induced HSE-luciferase signal, confirmation, cell-based, NIH3T3, luminescence, dose retest (AID 2382); assay type: functional;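 further: NIH3T3 fibroblasts with HSF1-driven luciferase reporter stressed by proteasome inhibitor MG132; luminescence from HSF1-driven luciferase expression after 8 hours of MG132 stress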
T6 sequence (P38532 whole entry): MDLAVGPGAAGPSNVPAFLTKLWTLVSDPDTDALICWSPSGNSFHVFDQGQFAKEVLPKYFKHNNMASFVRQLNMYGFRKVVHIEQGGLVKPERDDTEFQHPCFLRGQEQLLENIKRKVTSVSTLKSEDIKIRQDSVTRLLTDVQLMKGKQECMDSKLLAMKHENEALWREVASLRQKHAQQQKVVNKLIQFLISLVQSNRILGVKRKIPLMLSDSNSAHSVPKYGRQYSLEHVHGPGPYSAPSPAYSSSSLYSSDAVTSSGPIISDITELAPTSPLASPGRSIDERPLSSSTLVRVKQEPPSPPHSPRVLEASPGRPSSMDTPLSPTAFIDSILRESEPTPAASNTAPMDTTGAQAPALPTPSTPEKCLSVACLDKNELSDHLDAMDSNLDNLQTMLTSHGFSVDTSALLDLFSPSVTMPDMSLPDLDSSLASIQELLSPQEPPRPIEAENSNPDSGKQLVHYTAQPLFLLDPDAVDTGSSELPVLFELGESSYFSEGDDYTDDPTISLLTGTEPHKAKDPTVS

[6] = Luminescence Cell-Based Dose Response HTS to Identify Inhibitors of 5'UTR Stem-Loop Driven Prion Protein mRNA Translation in H4 Neuroglioblastoma Cells. [Related pubchem assays: 1827 (Project Summary), 1813 (Primary HTS)]; assay type: functional
[7] = inhibitors of firefly luciferase expression or activity, dose response, H4 neuroglioma cells, luminescence (AID 1990); assay type: functional, cell-based
[8] = inhibitors of SNCA 5'UTR-driven reporter translation, confirmation, H4 neuroglioma cells, luminescence (AID 1988); assay type: functional, cell-based
BJ [9] = assay: cytotoxicity toward BJ-TERT-LT-ST fibroblasts, dose response, cell-based, RAS-independent, luminescence (AID 1935); assay type: functional; details: Homo sapiens;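 further: BJ fibroblasts immortalized with TERT plus LT and ST oncogenes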
[10] = cytotoxicity toward DRD oncogenic fibroblasts, dose response, cell-based, non-viral oncogenic, luminescence (AID 1934); assay type: functional; details: Homo sapiens
BJ [11] = assay: cytotoxicity toward BJ-TERT fibroblasts, dose response, cell-based, RAS-independent, luminescence (AID 1933); assay type: functional; details: Homo sapiens
BJ [12] = assay: cells; assay type: functional, cell-based; details: Homo sapiens
[13] = C. albicans growth with fluconazole, confirmation, fluorescence, retest (AID 2467); assay type: functional, cell-based
[14] = NIH-3T3 fibroblast cytotoxicity, dose response, cytotoxicity control, cell-based, fluorescence, Alamar Blue, secondary assay (AID 2327); assay type: functional;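 further: NIH-3T3 mouse fibroblasts cultured with fluconazole at 8 µg/mL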
[15] = target: T7, RNA-binding protein pos-1 (Caenorhabditis elegans, UniProt G5EF15); assay: inhibitors of POS-1/mex-3 RNA binding, dose response, biochemical, fluorescence polarization (AID 1964);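 further: purified POS-1 fused to maltose binding protein made in E. coli; potency of compounds blocking POS-1 binding to fluorescent RNA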
T7 sequence (G5EF15 whole entry): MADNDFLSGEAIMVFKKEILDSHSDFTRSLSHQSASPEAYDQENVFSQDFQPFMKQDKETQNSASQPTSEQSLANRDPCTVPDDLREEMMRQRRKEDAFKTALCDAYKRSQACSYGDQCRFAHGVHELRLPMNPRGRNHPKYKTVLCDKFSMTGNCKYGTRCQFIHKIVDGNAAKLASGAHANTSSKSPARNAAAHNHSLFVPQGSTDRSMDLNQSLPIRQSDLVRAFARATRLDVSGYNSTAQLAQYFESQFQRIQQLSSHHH

Large T antigen = Large T antigen (Simian virus 40, UniProt P03070); assay type: functional, Betapolyomavirus macacae;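 further: Confirmatory-stage PubChem screen for compounds that inhibit SV40 T antigen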
Sequence of Large T antigen (P03070 whole entry): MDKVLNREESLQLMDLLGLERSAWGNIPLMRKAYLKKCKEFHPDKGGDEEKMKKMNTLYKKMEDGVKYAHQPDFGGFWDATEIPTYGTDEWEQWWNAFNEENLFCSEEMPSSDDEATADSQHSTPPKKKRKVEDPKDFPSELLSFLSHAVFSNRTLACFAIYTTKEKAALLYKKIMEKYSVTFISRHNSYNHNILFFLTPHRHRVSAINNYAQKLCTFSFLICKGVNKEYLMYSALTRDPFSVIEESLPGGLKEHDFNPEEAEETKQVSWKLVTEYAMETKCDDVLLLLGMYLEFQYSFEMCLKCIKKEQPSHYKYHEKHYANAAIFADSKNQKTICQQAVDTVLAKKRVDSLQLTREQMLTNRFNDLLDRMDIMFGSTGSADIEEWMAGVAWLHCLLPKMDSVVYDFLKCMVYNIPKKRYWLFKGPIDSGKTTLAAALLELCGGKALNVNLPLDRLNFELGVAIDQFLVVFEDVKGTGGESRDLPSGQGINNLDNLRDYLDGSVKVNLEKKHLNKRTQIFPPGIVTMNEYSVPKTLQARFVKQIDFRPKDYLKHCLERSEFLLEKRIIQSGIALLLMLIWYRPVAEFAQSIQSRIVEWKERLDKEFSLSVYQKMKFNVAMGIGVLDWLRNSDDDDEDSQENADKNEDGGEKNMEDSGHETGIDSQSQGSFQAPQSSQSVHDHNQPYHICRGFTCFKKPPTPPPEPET

[16] = target: T8, Zinc finger protein mex-5 (Caenorhabditis elegans, UniProt Q9XUB2); assay: MEX-5/TCR-2 RNA interaction inhibitors, dose response, biochemical, C. elegans, fluorescence polarization (AID 1960)
T8 sequence (Q9XUB2 whole entry): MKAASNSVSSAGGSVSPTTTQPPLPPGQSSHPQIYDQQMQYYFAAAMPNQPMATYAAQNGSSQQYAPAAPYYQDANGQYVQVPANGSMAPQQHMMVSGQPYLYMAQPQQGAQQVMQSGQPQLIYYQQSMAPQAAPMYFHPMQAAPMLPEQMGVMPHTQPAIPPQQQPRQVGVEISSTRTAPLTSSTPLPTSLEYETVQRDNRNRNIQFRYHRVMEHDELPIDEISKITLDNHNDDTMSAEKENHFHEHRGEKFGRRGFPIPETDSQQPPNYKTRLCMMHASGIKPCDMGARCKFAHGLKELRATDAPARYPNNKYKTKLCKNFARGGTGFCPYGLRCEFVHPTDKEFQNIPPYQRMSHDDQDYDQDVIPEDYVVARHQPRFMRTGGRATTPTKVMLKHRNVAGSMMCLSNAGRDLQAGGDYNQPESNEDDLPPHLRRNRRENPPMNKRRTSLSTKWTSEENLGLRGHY

T1 sequence (Q00975 whole entry): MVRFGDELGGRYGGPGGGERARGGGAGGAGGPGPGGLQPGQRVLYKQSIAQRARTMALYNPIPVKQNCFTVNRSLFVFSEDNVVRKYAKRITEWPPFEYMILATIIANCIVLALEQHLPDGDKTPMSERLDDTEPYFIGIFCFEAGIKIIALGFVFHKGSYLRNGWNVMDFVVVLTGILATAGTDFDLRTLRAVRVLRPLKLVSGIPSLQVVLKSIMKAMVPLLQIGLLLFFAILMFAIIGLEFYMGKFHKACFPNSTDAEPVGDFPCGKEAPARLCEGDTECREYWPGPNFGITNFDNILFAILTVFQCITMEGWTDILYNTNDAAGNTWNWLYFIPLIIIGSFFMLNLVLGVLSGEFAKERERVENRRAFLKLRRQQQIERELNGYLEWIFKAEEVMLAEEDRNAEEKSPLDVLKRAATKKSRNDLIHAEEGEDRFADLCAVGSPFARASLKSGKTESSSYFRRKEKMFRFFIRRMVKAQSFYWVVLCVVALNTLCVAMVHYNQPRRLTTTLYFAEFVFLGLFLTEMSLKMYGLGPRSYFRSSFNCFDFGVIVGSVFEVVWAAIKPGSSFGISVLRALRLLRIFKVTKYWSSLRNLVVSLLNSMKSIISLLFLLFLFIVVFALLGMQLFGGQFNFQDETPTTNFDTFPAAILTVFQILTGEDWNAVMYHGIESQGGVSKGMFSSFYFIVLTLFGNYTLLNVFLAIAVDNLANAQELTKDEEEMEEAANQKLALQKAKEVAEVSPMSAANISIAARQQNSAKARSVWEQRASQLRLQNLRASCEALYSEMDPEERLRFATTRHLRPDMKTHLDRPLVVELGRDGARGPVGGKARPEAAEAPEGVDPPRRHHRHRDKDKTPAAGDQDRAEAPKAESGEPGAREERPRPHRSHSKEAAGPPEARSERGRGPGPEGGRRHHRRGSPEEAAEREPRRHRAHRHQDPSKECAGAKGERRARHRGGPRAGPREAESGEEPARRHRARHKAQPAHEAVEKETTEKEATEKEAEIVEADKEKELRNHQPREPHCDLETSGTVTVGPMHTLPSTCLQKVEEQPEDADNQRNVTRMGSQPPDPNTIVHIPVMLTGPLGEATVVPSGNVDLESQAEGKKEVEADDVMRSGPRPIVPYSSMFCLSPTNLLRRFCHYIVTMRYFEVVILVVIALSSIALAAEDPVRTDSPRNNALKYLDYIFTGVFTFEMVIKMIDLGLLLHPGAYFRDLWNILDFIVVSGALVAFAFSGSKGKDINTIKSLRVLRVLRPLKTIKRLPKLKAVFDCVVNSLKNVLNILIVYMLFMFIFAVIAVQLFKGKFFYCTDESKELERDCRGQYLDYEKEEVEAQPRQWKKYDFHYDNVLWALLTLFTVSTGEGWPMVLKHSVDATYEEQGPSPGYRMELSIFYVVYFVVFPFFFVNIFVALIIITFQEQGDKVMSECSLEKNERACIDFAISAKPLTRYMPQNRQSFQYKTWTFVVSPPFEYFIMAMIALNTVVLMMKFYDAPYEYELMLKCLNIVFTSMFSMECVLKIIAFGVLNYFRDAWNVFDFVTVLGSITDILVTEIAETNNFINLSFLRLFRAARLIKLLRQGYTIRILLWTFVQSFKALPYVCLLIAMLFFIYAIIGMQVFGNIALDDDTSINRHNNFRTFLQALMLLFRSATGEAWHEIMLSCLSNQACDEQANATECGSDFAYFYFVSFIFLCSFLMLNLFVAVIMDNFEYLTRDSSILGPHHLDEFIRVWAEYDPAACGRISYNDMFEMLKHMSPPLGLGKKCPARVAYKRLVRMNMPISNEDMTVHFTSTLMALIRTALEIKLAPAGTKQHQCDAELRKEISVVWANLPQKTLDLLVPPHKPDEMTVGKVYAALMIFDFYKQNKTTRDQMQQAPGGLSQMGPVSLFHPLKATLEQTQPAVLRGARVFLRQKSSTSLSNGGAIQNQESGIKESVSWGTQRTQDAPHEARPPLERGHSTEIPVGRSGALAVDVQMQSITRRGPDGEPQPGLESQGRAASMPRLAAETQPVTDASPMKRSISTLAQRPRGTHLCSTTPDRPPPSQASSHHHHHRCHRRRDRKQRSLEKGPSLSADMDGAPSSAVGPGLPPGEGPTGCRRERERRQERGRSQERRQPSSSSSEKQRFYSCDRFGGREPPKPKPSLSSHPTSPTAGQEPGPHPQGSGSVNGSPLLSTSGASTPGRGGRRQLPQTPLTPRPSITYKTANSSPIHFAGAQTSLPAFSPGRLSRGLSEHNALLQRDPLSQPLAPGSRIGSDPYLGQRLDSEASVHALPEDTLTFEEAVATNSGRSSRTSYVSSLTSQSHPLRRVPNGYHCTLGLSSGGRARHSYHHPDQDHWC
T1 sequence (Q02410 whole entry): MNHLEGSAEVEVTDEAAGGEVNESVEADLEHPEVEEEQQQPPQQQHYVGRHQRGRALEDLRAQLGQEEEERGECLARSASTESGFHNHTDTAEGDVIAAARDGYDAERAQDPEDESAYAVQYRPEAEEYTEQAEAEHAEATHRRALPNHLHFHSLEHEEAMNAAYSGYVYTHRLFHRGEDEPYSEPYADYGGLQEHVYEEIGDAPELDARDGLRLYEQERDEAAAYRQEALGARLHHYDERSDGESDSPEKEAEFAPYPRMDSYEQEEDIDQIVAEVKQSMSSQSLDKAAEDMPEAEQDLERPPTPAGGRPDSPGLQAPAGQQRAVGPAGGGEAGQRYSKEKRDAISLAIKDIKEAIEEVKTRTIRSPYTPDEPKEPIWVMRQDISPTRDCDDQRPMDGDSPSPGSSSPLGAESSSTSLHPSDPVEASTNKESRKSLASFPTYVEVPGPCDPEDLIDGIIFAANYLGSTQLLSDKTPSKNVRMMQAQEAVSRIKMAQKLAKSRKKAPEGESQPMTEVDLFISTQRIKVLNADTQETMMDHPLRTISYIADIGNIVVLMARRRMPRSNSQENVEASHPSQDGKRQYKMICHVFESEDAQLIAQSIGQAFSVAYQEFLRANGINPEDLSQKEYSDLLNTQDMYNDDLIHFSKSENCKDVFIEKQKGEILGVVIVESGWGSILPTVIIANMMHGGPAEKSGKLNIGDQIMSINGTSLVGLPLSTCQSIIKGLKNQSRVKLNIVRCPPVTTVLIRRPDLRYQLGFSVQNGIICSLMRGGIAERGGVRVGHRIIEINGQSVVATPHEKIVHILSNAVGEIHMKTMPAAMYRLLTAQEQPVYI

O=C(CCN1C(=O)/C(=C/c2ccccc2F)SC1=S)NC1C=CS(=O)(=O)C1 (centres undefined)
IC50 [1]: 2.87 µM (active) | IC50 [2]: > 50 µM (inactive)

COc1ccc(S(=O)(=O)N2CCCCC2)cc1NC(=O)CN(C)C1CCCCC1
IC50 [3]: 10.8 µM (not active) | IC50 (Coagulation factor XII): > 50 µM (inactive)

CNC(=S)N=C(Nc1ccc(C)cc1)c1ccccc1
IC50 [1]: 2.38 µM (active) | IC50 [2]: > 50 µM (inactive)

Cc1ccc(SCc2n[nH]c3c2C(c2ccc(C)o2)C(C#N)=C(N)O3)cc1 (centres undefined)
EC50 (Protein RecA): 7.85 µM (active) | IC50 (Genome polyprotein): > 100 µM (active) | AC50 [4]: 61.4 µM (active) | EC50 [5]: > 195 µM (not active)

COCCCNc1nnc(Cc2ccc(Cl)cc2)c(O)n1
EC50 [6]: 9.52 µM (active) | EC50 [7]: 9.25 µM (inconclusive) | EC50 [8]: 6.13 µM (active) | EC50 (BJ [9]): 0.913 µM (active) | EC50 [10]: 1.04 µM (active) | EC50 (BJ [11]): 1.47 µM (active) | EC50 (BJ [12]): 24.2 µM (active)

CN(C)C(=O)c1cn(-c2ccccc2)nc1-c1cccs1
EC50 [13]: 7.34 µM (active) | EC50 [14]: 24 µM (inconclusive)

COC/C=C/C1=CC2=CC(=O)C(C)(OC(=O)CCC(=O)OC)C(=O)C2=CO1 (centres undefined)
IC50 [1]: > 56.8 µM (not active) | EC50 [15]: 22.1 µM (active) | IC50 [2]: 7.43 µM (active) | IC50 (Large T antigen): > 100 µM (active) | EC50 [16]: 17 µM (active)
